Read-outs that look alike come from different tables or passages of the source.
Tests used:
[1] = system: Key Broadleaf Weed and Crop Species; test: Post-Emergent Test II (Table 5); assay type: in vivo; conditions: post-emergence, 336 h; for pest or weed control at 70 g/ha: application rate 70 (kg ai/ha; footnote: g ai/ha); for pest or weed control at 140 g/ha: application rate 140 (kg ai/ha; footnote: g ai/ha)
Outline: (§1)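 Visual injury ratings (0 = no injury, 100 = complete kill) taken 14 days after treatment, relative to untreated controls. Compounds, in an acetone/DMSO aqueous carrier with crop oil and surfactant, were applied by track sprayer at 187 L/ha, in a twofold dilution series from the top rate, to plants at the first to second true-leaf stage.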

[2] = system: Key Grass and Sedge Weeds as well as Grass Crops; test: Post-Emergent Test II (Table 6); assay type: in vivo; conditions: post-emergence, 336 h, 14 days after application; for pest or weed control at 70 g/ha: 70 g ai/ha; for pest or weed control at 140 g/ha: 140 g ai/ha
Outline: as §1

[3] = Abutilon theophrasti, ABUTH: velvetleaf (Abutilon theophrasti), read-out: Visual Growth Reduction (%) 14 Days After Application ABUTH
[4] = Amaranthus retroflexus, AMARE: redroot pigweed (Amaranthus retroflexus), read-out: Visual Growth Reduction (%) 14 Days After Application AMARE
[5] = Brassica napus, BRSSS: oilseed rape, canola (Brassica napus), read-out: Visual Growth Reduction (%) 14 Days After Application BRSSS
[6] = Chenopodium album, CHEAL: lambsquarters (Chenopodium album), read-out: Visual Growth Reduction (%) 14 Days After Application CHEAL
[7] = Euphorbia heterophylla, EPHHL: wild poinsettia (Euphorbia heterophylla), read-out: Visual Growth Reduction (%) 14 Days After Application EPHHL
[8] = Helianthus annuus, HELAN: sunflower (Helianthus annuus), read-out: Visual Growth Reduction (%) 14 Days After Application HELAN
[9] = Viola tricolor, VIOTR: wild pansy (Viola tricolor), read-out: Visual Growth Reduction (%) 14 Days After Application VIOTR
[10] = CYPSS, read-out: Visual Growth Reduction (%) 14 Days After Application CYPSS
[11] = DIGSA: crabgrass (Digitaria sanguinalis), read-out: Visual Growth Reduction (%) 14 Days After Application DIGSA
[12] = ECHSS, read-out: Visual Growth Reduction (%) 14 Days After Application ECHSS
[13] = ORYSS (crop), read-out: Visual Growth Reduction (%) 14 Days After Application ORYSS
[14] = SETFA: giant foxtail (Setaria faberi), read-out: Visual Growth Reduction (%) 14 Days After Application SETFA
[15] = SORVU: grain sorghum (Sorghum vulgare), read-out: Visual Growth Reduction (%) 14 Days After Application SORVU
[16] = TRZSS (crop), read-out: Visual Growth Reduction (%) 14 Days After Application TRZSS
[17] = ZEAMX: maize, corn (Zea mays), read-out: Visual Growth Reduction (%) 14 Days After Application ZEAMX

Row | SMILES | pest or weed control at 70 g/ha [1, 3] [%] | pest or weed control at 140 g/ha [1, 3] [%] | pest or weed control at 70 g/ha [1, 4] [%] | pest or weed control at 140 g/ha [1, 4] [%] | pest or weed control at 70 g/ha [1, 5] [%] | pest or weed control at 140 g/ha [1, 5] [%] | pest or weed control at 70 g/ha [1, 6] [%] | pest or weed control at 140 g/ha [1, 6] [%] | pest or weed control at 70 g/ha [1, 7] [%] | pest or weed control at 140 g/ha [1, 7] [%] | pest or weed control at 70 g/ha [1, 8] [%] | pest or weed control at 140 g/ha [1, 8] [%] | pest or weed control at 70 g/ha [1, 9] [%] | pest or weed control at 140 g/ha [1, 9] [%] | pest or weed control at 70 g/ha [2, 10] [%] | pest or weed control at 140 g/ha [2, 10] [%] | pest or weed control at 70 g/ha [2, 11] [%] | pest or weed control at 140 g/ha [2, 11] [%] | pest or weed control at 70 g/ha [2, 12] [%] | pest or weed control at 140 g/ha [2, 12] [%] | other results
1 | Cc1c(-c2nc(C(=O)O)c(Cl)c(N)c2F)ccc(Cl)c1F [Compound 67] | 85 to 94 | 85 to 94 | 95 to 100 | 95 to 100 | 95 to 100 | 95 to 100 | 95 to 100 | 95 to 100 | 0 to 29 | 0 to 29 | 95 to 100 | 95 to 100 | 0 to 29 | 0 to 29 | 0 to 29 | 0 to 29 | 0 to 29 | 0 to 29 | 0 to 29 | 0 to 29 | pest or weed control at 70 g/ha [2, 13]: 0 to 29%; pest or weed control at 140 g/ha [2, 13]: 0 to 29%; pest or weed control at 70 g/ha [2, 14]: 0 to 29%; pest or weed control at 140 g/ha [2, 14]: 0 to 29%; pest or weed control at 70 g/ha [2, 15]: 0 to 29%; pest or weed control at 140 g/ha [2, 15]: 0 to 29%; pest or weed control at 70 g/ha [2, 16]: 0 to 29%; pest or weed control at 140 g/ha [2, 16]: 0 to 29%; pest or weed control at 70 g/ha [2, 17]: 0 to 29%; pest or weed control at 140 g/ha [2, 17]: 0 to 29%
2 | C#Cc1c(-c2cc(N)c(Cl)c(C(=O)OC)n2)ccc(Cl)c1F [Compound 75, methyl 4-amino-3-chloro-6-(4-chloro-2-ethynyl-3-fluorophenyl)picolinate] | 0 to 29 | 0 to 29 | 0 to 29 | 0 to 29 | 0 to 29 | 0 to 29 | 75 to 84 | 75 to 84 | 0 to 29 | 0 to 29 | 0 to 29 | 0 to 29 | 0 to 29 | 0 to 29 | 0 to 29 | 0 to 29 | 0 to 29 | 0 to 29 | 0 to 29 | 0 to 29 | pest or weed control at 70 g/ha [2, 13]: 0 to 29%; pest or weed control at 140 g/ha [2, 13]: 0 to 29%; pest or weed control at 70 g/ha [2, 14]: 0 to 29%; pest or weed control at 140 g/ha [2, 14]: 0 to 29%; pest or weed control at 70 g/ha [2, 15]: 0 to 29%; pest or weed control at 140 g/ha [2, 15]: 0 to 29%; pest or weed control at 70 g/ha [2, 16]: 0 to 29%; pest or weed control at 140 g/ha [2, 16]: 0 to 29%; pest or weed control at 70 g/ha [2, 17]: 0 to 29%; pest or weed control at 140 g/ha [2, 17]: 0 to 29%
3 | COC(=O)c1nc(-c2ccc(Cl)c(F)c2CF)cc(N)c1Cl [Compound 78, methyl 4-amino-3-chloro-6-(4-chloro-3-fluoro-2-(fluoromethyl)phenyl)picolinate] | 95 to 100 | 95 to 100 | 95 to 100 | 95 to 100 | 95 to 100 | 95 to 100 | 95 to 100 | 95 to 100 | 0 to 29 | 0 to 29 | 85 to 94 | 85 to 94 | 0 to 29 | 0 to 29 | 45 to 59 | 45 to 59 | 0 to 29 | 0 to 29 | 0 to 29 | 0 to 29 | pest or weed control at 70 g/ha [2, 13]: 0 to 29%; pest or weed control at 140 g/ha [2, 13]: 0 to 29%; pest or weed control at 70 g/ha [2, 14]: 0 to 29%; pest or weed control at 140 g/ha [2, 14]: 0 to 29%; pest or weed control at 70 g/ha [2, 15]: 0 to 29%; pest or weed control at 140 g/ha [2, 15]: 0 to 29%; pest or weed control at 70 g/ha [2, 16]: 0 to 29%; pest or weed control at 140 g/ha [2, 16]: 0 to 29%; pest or weed control at 70 g/ha [2, 17]: 0 to 29%; pest or weed control at 140 g/ha [2, 17]: 0 to 29%

Reference: patent US10765114B2, “4-amino-6-(pyridyl and 2-substitutedphenyl)-picolinates and 6-amino-2-(pyridyl and 2-substitutedphenyl)-pyrimidine-4-carboxylates and their use as herbicides” (Dow AgroSciences LLC, priority 2013, dated 2020)
